This is an account of results in ChEMBL document CHEMBL1201862, “PubChem BioAssay data set” (2004).

Some test systems named below: SW-620; BT-549; UACC-62; HT-29; OVCAR-3; MCF7; NCI/ADR-RES; HOP-62; Malme-3M; SK-MEL-5; M14; NCI-H460; CAKI-1; RXF 393; UACC-257; SF-268; DU-145; T47D; OVCAR-5; PC-3.
Common to all, as to assay: inhibition of tumour cell growth, NCI panel, 48 h

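Where inhibition never reached the appropriate level, the endpoint shown equals the highest concentration tested. Otherwise, values were interpolated linearly from a five-concentration, 48-hour dose response in 96-well plates. The concentration for 50% growth inhibition is given as GI50.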 The source made the active and inactive calls. Rule as the data show it: active = GI50 up to about 1.1 µM and inactive = higher.

Regarding `Cn1c(=S)c2nc(SCCCc3ccccc3)[nH]c2n(C)c1=O`, the GI50 in the assay on SW-620 was 36.4 µM (inactive); in the assay with BT-549, 45.1 µM (inactive); with UACC-62, 26.2 µM (inactive); in the assay with HT-29, 22.8 µM (inactive); with OVCAR-3, 20.9 µM (inactive); with MCF7, 22.1 µM (inactive). The GI50 was 22.3 µM (inactive) in the assay on NCI/ADR-RES; 17.3 µM (inactive) with HOP-62; 62.1 µM (inactive) in the assay on Malme-3M; 6.67 µM (inactive) in the assay on SK-MEL-5; 17.6 µM (inactive) with M14; 7.14 µM (inactive) with NCI-H460. Besides, the GI50 in the assay on CAKI-1 was 20.9 µM (inactive); in the assay on RXF 393, 56.5 µM (inactive); with UACC-257 it was 8.24 µM (inactive); in the assay with SF-268, 32.5 µM (inactive); in the assay with DU-145, 36.1 µM (inactive); in the assay with T47D, 14.6 µM (inactive). The GI50 in the assay with OVCAR-5 is 20.7 µM (inactive); with PC-3, 36.8 µM (inactive).
Consider `O=C1Nc2ccccc2/C1=N/Nc1ccccc1Cl`, for which the GI50 was > 100 µM (inactive) in the assay on SW-620; > 100 µM (inactive) in the assay on BT-549; 89.3 µM (inactive) in the assay on UACC-62; > 100 µM (inactive) in the assay on HT-29; 26.6 µM (inactive) in the assay with OVCAR-3; > 100 µM (inactive) in the assay on MCF7. In addition, the GI50 with NCI/ADR-RES is 44.6 µM (inactive); with HOP-62, 11.1 µM (inactive); in the assay with Malme-3M, 77.3 µM (inactive); in the assay with SK-MEL-5, 68.5 µM (inactive); with M14 it was 96.2 µM (inactive); with NCI-H460 it was 18.2 µM (inactive). The GI50 in the assay with CAKI-1 is 15.7 µM (inactive); with RXF 393, 34.8 µM (inactive); in the assay on UACC-257, 35.3 µM (inactive); with SF-268, 29.8 µM (inactive); in the assay with DU-145 it was 70 µM (inactive); in the assay with T47D, 12.5 µM (inactive). The GI50 in the assay on OVCAR-5 is 51.8 µM (inactive); in the assay on PC-3, > 100 µM (inactive).
As to `Cc1cc2nc(C=C(C(F)(F)F)C(F)(F)F)sc2cc1C`, the GI50 in the assay on SW-620 was 0.957 µM (active); in the assay on BT-549, 0.855 µM (active); in the assay on UACC-62 it was 1.85 µM (inactive); in the assay on HT-29, 0.929 µM (active); in the assay with OVCAR-3, 1.16 µM (inactive); with MCF7, 2.63 µM (inactive). Further, the GI50 in the assay on NCI/ADR-RES was 0.55 µM (active); in the assay with HOP-62, 3.05 µM (inactive); with Malme-3M it was 1.44 µM (inactive); in the assay with SK-MEL-5, 2.49 µM (inactive); with M14 it was 0.782 µM (active); in the assay on NCI-H460 it was 3.58 µM (inactive). The GI50 in the assay with CAKI-1 is 2.64 µM (inactive); in the assay with RXF 393 it was 1.16 µM (inactive); with UACC-257, 4.55 µM (inactive); with SF-268, 3.05 µM (inactive); with DU-145, 3.37 µM (inactive); in the assay with T47D, 0.142 µM (active). Moreover, the GI50 is 2.59 µM (inactive) in the assay with OVCAR-5 and 1.65 µM (inactive) in the assay on PC-3.
On to `CC(C)(C)N/N=C(/Cc1nc2c3c(ccc2nc1O)C(=O)c1ccccc1C3=O)C(=O)NC1=C(Cl)C(=O)c2ccccc2C1=O`, for which the GI50 is 39.3 µM (inactive) in the assay with SW-620; 70.5 µM (inactive) with BT-549; 21.2 µM (inactive) with UACC-62; 13.6 µM (inactive) in the assay on HT-29; 13.9 µM (inactive) in the assay on OVCAR-3; 20 µM (inactive) in the assay on MCF7. The GI50 with NCI/ADR-RES is 5.77 µM (inactive); with Malme-3M it was 12.3 µM (inactive); in the assay on SK-MEL-5, 11.1 µM (inactive); in the assay with M14 it was 15.5 µM (inactive); in the assay on NCI-H460, 5.42 µM (inactive); in the assay on CAKI-1, 1.06 µM (active). Moreover, the GI50 with RXF 393 is 6.18 µM (inactive); in the assay on UACC-257, 57.9 µM (inactive); with SF-268, 6.97 µM (inactive); in the assay with DU-145, 21.8 µM (inactive); in the assay on T47D, 23.3 µM (inactive); with OVCAR-5, > 100 µM (inactive). Moreover, in the assay with PC-3, the GI50 was 7.71 µM (inactive).
With `CCOP(C)(=O)/C(Cc1ccc(OC)c(OC)c1)=N\O` (configuration not stated), the GI50 in the assay on SW-620, with BT-549, in the assay with UACC-62, with HT-29, with OVCAR-3 and in the assay with MCF7 was > 100 µM (inactive) in each case. In addition, the GI50 in the assay with NCI/ADR-RES, in the assay on HOP-62, with Malme-3M, in the assay on SK-MEL-5, with M14 and with NCI-H460 was > 100 µM (inactive) in each case. The GI50 in the assay with CAKI-1, with RXF 393, in the assay with DU-145, with T47D, with OVCAR-5 and with PC-3 was > 100 µM (inactive) in each case.
With `CCOC(=O)C1=NNC(C(=O)c2ccccc2)C1c1ccccc1` (configuration not stated), the GI50 in the assay with SW-620 was 1.75 µM (inactive); in the assay with BT-549 it was 2.08 µM (inactive); with UACC-62 it was 3.18 µM (inactive); in the assay on HT-29, 2.28 µM (inactive); in the assay with OVCAR-3, 3.42 µM (inactive); in the assay with MCF7 it was 1.91 µM (inactive). The GI50 in the assay on NCI/ADR-RES is 4.35 µM (inactive); in the assay on HOP-62, 12.2 µM (inactive); in the assay on Malme-3M it was 2.19 µM (inactive); in the assay with SK-MEL-5, 1.8 µM (inactive); in the assay with M14 it was 1.9 µM (inactive); with CAKI-1 it was 1.83 µM (inactive). For the same compound, the GI50 was 1.7 µM (inactive) in the assay on RXF 393; 2.61 µM (inactive) in the assay on UACC-257; 5 µM (inactive) with SF-268; 13.2 µM (inactive) with DU-145; 4.24 µM (inactive) in the assay with T47D; 6.47 µM (inactive) with OVCAR-5. Moreover, in the assay on PC-3, the GI50 is 10.4 µM (inactive).
Consider `Cc1ccccc1C(=O)N/N=C/c1ccc(Sc2nccn2C)c([N+](=O)[O-])c1`, for which the GI50 in the assay on SW-620 is > 100 µM (inactive); in the assay with BT-549, 67.1 µM (inactive); in the assay with UACC-62, 71.9 µM (inactive); with HT-29, 41.3 µM (inactive); with OVCAR-3 it was > 100 µM (inactive); with MCF7, > 100 µM (inactive). In addition, the GI50 in the assay on NCI/ADR-RES is > 100 µM (inactive); in the assay with HOP-62, 80.2 µM (inactive); in the assay on Malme-3M it was 69.3 µM (inactive); in the assay with SK-MEL-5 it was 36.4 µM (inactive); in the assay on M14, > 100 µM (inactive); in the assay with NCI-H460, 49 µM (inactive). For the same compound, the GI50 is 78.9 µM (inactive) with CAKI-1; 74.3 µM (inactive) with RXF 393; > 100 µM (inactive) with UACC-257; > 100 µM (inactive) with SF-268; 88.3 µM (inactive) in the assay on DU-145; 45.3 µM (inactive) in the assay with T47D. In addition, the GI50 with OVCAR-5 was > 100 µM (inactive); in the assay on PC-3, 67.8 µM (inactive).
As for `CC1(C)OCC2OC3([C@@H]4OC(C)(C)O[C@H]4CO)OC(C)(C)OC3C2O1` (some centres not stated), the GI50 with SW-620, in the assay on BT-549, with UACC-62, in the assay on OVCAR-3, in the assay with MCF7 and with NCI/ADR-RES was > 100 µM (inactive) each time. Moreover, the GI50 in the assay on HOP-62, in the assay with SK-MEL-5, with M14, with NCI-H460, in the assay with CAKI-1 and in the assay with RXF 393 was > 100 µM (inactive) throughout. Also, the GI50 with UACC-257, in the assay with DU-145, with T47D, in the assay on OVCAR-5 and with PC-3 was > 100 µM (inactive) in each case.
As to `C/C=C/[P+](c1ccccc1)(c1ccccc1)c1ccccc1`, the GI50 was 0.48 µM (active) in the assay with SW-620; 0.277 µM (active) in the assay on BT-549; 1.71 µM (inactive) in the assay on UACC-62; 0.914 µM (active) in the assay on HT-29; 0.54 µM (active) in the assay with OVCAR-3; 1.18 µM (inactive) in the assay with MCF7. Besides, the GI50 in the assay with NCI/ADR-RES is > 100 µM (inactive); in the assay with HOP-62 it was 3.03 µM (inactive); in the assay with Malme-3M, 0.541 µM (active); with SK-MEL-5, 0.378 µM (active); in the assay with M14 it was 4.92 µM (inactive); in the assay on NCI-H460, 1.36 µM (inactive). The GI50 is > 68.1 µM (inactive) with CAKI-1; 6.14 µM (inactive) in the assay with RXF 393; 0.295 µM (active) in the assay on UACC-257; 1.54 µM (inactive) in the assay with SF-268; 1.15 µM (inactive) in the assay with DU-145; 0.163 µM (active) with T47D. The GI50 was 4.24 µM (inactive) in the assay on OVCAR-5 and 0.962 µM (active) in the assay with PC-3.
Regarding `O=C(O)CSc1nnc(CCCCCCCCc2nnc(SCC(=O)O)o2)o1`, the GI50 in the assay with SW-620, in the assay on BT-549, in the assay with UACC-62, in the assay with HT-29, in the assay with MCF7 and in the assay on NCI/ADR-RES was > 100 µM (inactive) each time. Further, the GI50 with HOP-62, in the assay with Malme-3M, in the assay on SK-MEL-5, with M14, with NCI-H460 and with CAKI-1 was > 100 µM (inactive) in each case. The GI50 in the assay with RXF 393 is 38.5 µM (inactive); in the assay on UACC-257, > 100 µM (inactive); with SF-268, > 100 µM (inactive); with DU-145, > 100 µM (inactive); with T47D, > 100 µM (inactive); in the assay on OVCAR-5, > 100 µM (inactive). In addition, the GI50 in the assay with PC-3 is > 100 µM (inactive).
